Reference: US20160331853A1, “COMPOSITIONS FOR RADIOTHERAPY AND USES THEREOF” (The Trustees of Columbia University in the City of New York, priority 2014, published 2016)
Values joined by “and” are separate entries in the source; they are usually repeats but may differ in a detail not shown here. Equal values may be shown once. Where a name gives a salt, the structure may show the parent alone. Read-outs that look alike come from different tables or passages of the source.

Columns and labels:
NCI-28H cells [1] = assay: Example 21: cytotoxicity (MTS) assay, NCI-28H cells treated with doxorubicin, cisplatin, paclitaxel, talc alone, talc bound to each drug; type: cell-based; details: for AVERAGE reading: cells + DOX: NCI-28H, 72 hrs; for Average reading: cells + cisplatin: absorbance 490 nm; for Average reading: cells + cisplatin / % survival from untreated cells (cells + cisplatin): NCI-28H cells
NCI-28H cells [2] = assay: Example 22: cytotoxicity (MTS) assay, NCI-28H cells treated with carboplatin, mitomycin, gemcitabine, talc alone, talc bound to each drug; details: for % survival from untreated cells: cells + drug, carboplatin / Average reading: cells + drug, carboplatin / Average absorbance reading: cells + drug, gemcitabine / % survival cells: cells + drug only: NCI-28H cells; for Average reading: cells + drug, carboplatin: absorbance 490 nm; for Average absorbance reading: cells + drug, gemcitabine: 490 nm, Table 79; for % survival cells: cells + drug only: Table 80
[3] = Example 2: Avidin and Avidin-Rhodamine binding to talc after PBS and 0.2% EDTA washes, fluorescent microscope; details: 100 mg talc; 3x PBS, 3x 0.2% EDTA washes
Protocol: The resulting mixtures were then washed with PBS and then washed with 0.2% EDTA.
3. Mix 1 mL of 100 μM of Avidin with 500 μL of 30.3 μM of Avidin Rhodamine (keep lights off).
4. […] Mix well to bring the dry talc powder to evenly distributed reaction solution.
8. Place tubes on the rotator and incubate overnight at 4° C.
5. Continue to wash all “b” labeled tubes with 0.2% EDTA. Wash 3× in 0.5 mL EDTA.
7. View slides under fluorescent microscope.

[4] = Example 1: binding of Anti-Avidin FITC and Biotin Rhodamine to talc, fluorescence microscopy; details: 30 mg talc; FITC and Rhodamine filters
Description: This combinant nanoparticle was observed under microscopy for efficiency and efficacy. 1. […] 4. […] 5. […] 3. […] 4. […] 7. […] PBS+0.05% Tween20). 9. Analyze under microscope using FITC filter and Rhodamine filter.

[5] = Example 25: non-specific binding of Biotin-Rhodamine to talc after washing with buffers of different pH, fluorescent assay 496/520 nm
Protocol: Plan: incubate talc with Biotin Rhodamine. Make washings using different pH buffers: PBS, TBS (pH 8.0), Citrate buffer (pH 4.8). Run fluorescent assay. 1. […] Label tubes as #1, #2, #3, #4. 2. Add to each tube 500 μL 1×PBS. 3. […] 4. Mix well, incubate all tubes for 1 hr at 4° C., rotator. Protect from light. 5. […] (Centrifuge speed −3200 rpm for 3 min) 7. Add to all tubes 200 μL PBS, mix well. 8. […] 9. Run fluorescent assay using settings excitation/emission as 496 nm/520 nm.

[6] = Example 9: binding of bleomycin to talc, fluorescent microscopy (DAPI filter); details: 50 mg talc, 1 or 100 μg/mL bleomycin
Protocol: 1. Reconstitute bleomycin by adding 100 μL of water to 1 mg of bleomycin. Get the concentration to 10 mg/mL and mix, keeping the drug at 4° C.
9. Incubate overnight at 4° C., constantly mixing it.
3. Wash tubes 3× with 1 mL of water.
4. After last wash, complete, remove the water and resuspend the pellet in Vectashield mounting medium for fluorescence.
6. Check slides under fluorescent microscope under DAPI filter.

[7] = flow cytometry, after multiple PBS washes
NCI-28H cells [8] = details: 72 hrs

Compound: COc1cccc2c1C(=O)c1c(O)c3c(c(O)c1C2=O)C[C@@](O)(C(=O)CO)C[C@@H]3O[C@H]1C[C@H](N)[C@H](O)[C@H](C)O1 [DOX, Doxorubicin Hydrochloride]
- AVERAGE reading: cells + DOX (NCI-28H cells [1]; DOX 0.2 μM): 0.89
- AVERAGE reading: cells + DOX (NCI-28H cells [1]; DOX 1 μM): 0.67
- AVERAGE reading: cells + DOX (NCI-28H cells [1]; DOX 5 μM): 0.63

Compound: N.N.O=C([O-])C1(C(=O)[O-])CCC1.[Pt+2] [carboplatin]
- % survival from untreated cells: cells + drug, carboplatin (NCI-28H cells [2]; carboplatin 0.006 μM): 90.84% and 94.28%
- Average reading: cells + drug, carboplatin (NCI-28H cells [2]; carboplatin 0.006 μM): 1.504
- % survival from untreated cells: cells + drug, carboplatin (NCI-28H cells [2]; carboplatin 0.8 μM): 85.98% and 87.53%
- Average reading: cells + drug, carboplatin (NCI-28H cells [2]; carboplatin 0.8 μM): 1.4238
- % survival from untreated cells: cells + drug, carboplatin (NCI-28H cells [2]; carboplatin 4 μM): 96.93% and 93.62%
- Average reading: cells + drug, carboplatin (NCI-28H cells [2]; carboplatin 4 μM): 1.605
- % survival from untreated cells: cells + drug, carboplatin (NCI-28H cells [2]; carboplatin 20 μM): 104.81% and 99.20%
- Average reading: cells + drug, carboplatin (NCI-28H cells [2]; carboplatin 20 μM): 1.7355
- % survival from untreated cells: cells + drug, carboplatin (NCI-28H cells [2]; carboplatin 100 μM): 83.82% and 79.53%
- Average reading: cells + drug, carboplatin (NCI-28H cells [2]; carboplatin 100 μM): 1.388
- % survival from untreated cells: cells + drug, carboplatin (NCI-28H cells [2]; carboplatin 500 μM): 37.38% and 35.14%
- Average reading: cells + drug, carboplatin (NCI-28H cells [2]; carboplatin 500 μM): 0.6189

Compound: N.N.[Cl][Pt][Cl] [cisplatin, Cisplatin]
- Average reading: cells + cisplatin (NCI-28H cells [1]; Cisplatin 0.0013 μM): 1.37
- Average reading: cells + cisplatin (NCI-28H cells [1]; Cisplatin 0.0064 μM): 1.19
- Average reading: cells + cisplatin (NCI-28H cells [1]; Cisplatin 0.8 μM): 1.23
- Average reading: cells + cisplatin (NCI-28H cells [1]; Cisplatin 4 μM): 1.18
- Average reading: cells + cisplatin (NCI-28H cells [1]; Cisplatin 20 μM): 0.48
- Average reading: cells + cisplatin (NCI-28H cells [1]; Cisplatin 100 μM): 0.59
- % survival from untreated cells (cells + cisplatin) (NCI-28H cells [1]; cisplatin 0.0013 (μM per Table 63)): 91.07%
- % survival from untreated cells (cells + cisplatin) (NCI-28H cells [1]; cisplatin 0.0064 (μM per Table 63)): 79.21%
- % survival from untreated cells (cells + cisplatin) (NCI-28H cells [1]; cisplatin 0.032 (μM per Table 63)): 76.66%
- % survival from untreated cells (cells + cisplatin) (NCI-28H cells [1]; cisplatin 0.16 (μM per Table 63)): 79.74%
- % survival from untreated cells (cells + cisplatin) (NCI-28H cells [1]; cisplatin 0.8 (μM per Table 63)): 82.09%
- % survival from untreated cells (cells + cisplatin) (NCI-28H cells [1]; cisplatin 4 (μM per Table 63)): 78.41%
- % survival from untreated cells (cells + cisplatin) (NCI-28H cells [1]; cisplatin 20 (μM per Table 63)): 31.99%
- % survival from untreated cells (cells + cisplatin) (NCI-28H cells [1]; cisplatin 100 (μM per Table 63)): 39.35%

Compound: Nc1ccn([C@@H]2O[C@H](CO)[C@@H](O)C2(F)F)c(=O)n1 [gemcitabine, Gemcitabine, reference compound]
- cytotoxicity to NCI-28H cells, conclusion (NCI-28H cells [2]): clear cytotoxic effect
- Average absorbance reading: cells + drug, gemcitabine (NCI-28H cells [2]; Gemcitabine 0.0026 uM): 2.034
- % survival cells: cells + drug only (NCI-28H cells [2]; Gemcitabine 0.0026 uM): 114.61%
- Average absorbance reading: cells + drug, gemcitabine (NCI-28H cells [2]; Gemcitabine 0.013 uM): 1.914
- % survival cells: cells + drug only (NCI-28H cells [2]; Gemcitabine 0.013 uM): 107.85%
- Average absorbance reading: cells + drug, gemcitabine (NCI-28H cells [2]; Gemcitabine 0.064 uM): 1.43
- % survival cells: cells + drug only (NCI-28H cells [2]; Gemcitabine 0.064 uM): 80.60%
- Average absorbance reading: cells + drug, gemcitabine (NCI-28H cells [2]; Gemcitabine 8 uM): 1.004
- % survival cells: cells + drug only (NCI-28H cells [2]; Gemcitabine 8 uM): 56.58%
- Average absorbance reading: cells + drug, gemcitabine (NCI-28H cells [2]; Gemcitabine 40 uM): 1.0663
- % survival cells: cells + drug only (NCI-28H cells [2]; Gemcitabine 40 uM): 60.09%
- Average absorbance reading: cells + drug, gemcitabine (NCI-28H cells [2]; Gemcitabine 200 uM): 0.9352
- % survival cells: cells + drug only (NCI-28H cells [2]; Gemcitabine 200 uM): 52.70%

Compound: Avidin-Rhodamine: Rhodamine Conjugated Avidin from Rockland [reference compound]
- binding to talc after washing [3]: remained bound to talc despite multiple washes

Compound: Biotin Rhodamine 110
- binding to talc, microscopy [4]: binding to talc
- effect of pH of washing buffers on binding to talc ([5]; pH 4.8-8.0): pH does not affect the binding
- Average fluorescent signal (Rhodamine 110) ([5]; talc/Biotin washed with Citrate buffer, pH 4.8): 14027.61
- Average fluorescent signal (Rhodamine 110) ([5]; talc/Biotin washed with PBS): 13760.41
- Average fluorescent signal (Rhodamine 110) ([5]; talc/Biotin washed with TBS, pH 8.0): 12868.68

Compound: Bleomycin sulfate
- fluorescent imaging of talc incubated with bleomycin [6]: no difference in fluorescent imaging between negative control and talc incubated with bleomycin
- binding of bleomycin to talc [7]: binds to talc and remains on surface of talc even following multiple PBS washes
- % survival NCI-28H cells after treatment with BLEOMYCIN (NCI-28H cells [8]; Bleomycin 0.004 ug/ml): 92.41%
- % survival NCI-28H cells after treatment with BLEOMYCIN (NCI-28H cells [8]; Bleomycin 0.015 ug/ml): 88.25%
- % survival NCI-28H cells after treatment with BLEOMYCIN (NCI-28H cells [8]; Bleomycin 0.06 ug/ml): 93.38%
- % survival NCI-28H cells after treatment with BLEOMYCIN (NCI-28H cells [8]; Bleomycin 0.24 ug/ml): 91.86%
- % survival NCI-28H cells after treatment with BLEOMYCIN (NCI-28H cells [8]; Bleomycin 0.97 ug/ml): 86.19%
- % survival NCI-28H cells after treatment with BLEOMYCIN (NCI-28H cells [8]; Bleomycin 3.9 ug/ml): 71.05%
- % survival NCI-28H cells after treatment with BLEOMYCIN (NCI-28H cells [8]; Bleomycin 15.6 ug/ml): 74.60%
- % survival NCI-28H cells after treatment with BLEOMYCIN (NCI-28H cells [8]; Bleomycin 62.5 ug/ml): 68.76%
- % survival NCI-28H cells after treatment with BLEOMYCIN (NCI-28H cells [8]; Bleomycin 250 ug/ml): 47.13%
- % survival NCI-28H cells after treatment with BLEOMYCIN (NCI-28H cells [8]; Bleomycin 1000 ug/ml): 24.92%
